Data taken from US20230059136A1, “THE COMPOUNDS AND COMPOSITIONS FOR TREATING CONDITIONS ASSOCIATED WITH NLRP ACTIVITY” (Novartis AG, priority 2018, published 2023).

System: IL-1β production in PMA-differentiated THP-1 cells
Assay: IL-1β production in PMA-differentiated THP-1 cells stimulated with gramicidin (hTHP-1 assay containing 2% fetal bovine serum)
Assay type: cell-based, human
Settings: Homo sapiens, THP-1, Table B1; 2% fetal bovine serum; cells printed as numeric bound; read-out: hTHP-1 IC50 (Average IC50 of compounds in hTHP-1 assay)
In short: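 THP-1 cells were differentiated with PMA 20 ng/ml for 16-18 h, then plated at 50,000 cells/well in RPMI with 2% FBS. They were preincubated 1 h with compound (100–0.0017 μM final, 0.37% DMSO), then stimulated with gramicidin 5 μM for 2 h. Supernatant IL-1β was measured by HTRF.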

Question: `CC(C)c1cc(CCC2CCCCC2)cc(C(C)C)c1CC(=O)N=S(N)(=O)c1cc(C(C)(C)O)n(-c2ccccc2)n1` (single isomer, unassigned) [Example 282, (S) or (R)-N-(amino(5-(2-hydroxypropan-2-yl)-1-phenyl-1H-pyrazol-3-yl)(oxo)-λ^6-sulfaneylidene)-2-(4-(2-cyclohexylethyl)-2,6-diisopropylphenyl) acetamide] was tested. Which IC50 did it give?
Answer: The IC50 was > 30000 nM.

Question: With `CC(C)c1cc(COC2CCCC2)cc(C(C)C)c1CC(=O)N=S(N)(=O)c1cc(C(C)(C)O)n(-c2ccc(F)cc2)n1` (single isomer, unassigned) [Example 284, (S) or (R)-N-(amino(1-(4-fluorophenyl)-5-(2-hydroxypropan-2-yl)-1H-pyrazol-3-yl)(oxo)-λ^6-sulfaneylidene)-2-(4-((cyclopentyloxy)methyl)-2,6-diisopropylphenyl) acetamide] as the compound, how does the IC50 read?
Answer: Its IC50 is > 30000 nM.

Question: `CC(C)c1cc2c(c(C(C)C)c1CC(=O)N=S(N)(=O)c1cccc(C(C)(C)O)c1)COC2` (single isomer, unassigned) [Example 304, (S) or (R)-N-(amino(3-(2-hydroxypropan-2-yl)phenyl)(oxo)-λ^6-sulfaneylidene)-2-(4,6-diisopropyl-1,3-dihydroisobenzofuran-5-yl)acetamide] was tested. Which IC50 did it give?
Answer: Its IC50 is > 30000 nM.

Question: With `NS(=O)(=NC(=O)Cc1c2c(cc3c1CCC3)CCC2)c1cnn2c1OCCC2` (single isomer, unassigned) [Example 269, (R) or (S)-N-(amino(6,7-dihydro-5H-pyrazolo[5,1-b][1,3]oxazin-3-yl)(oxo)-λ^6-sulfaneylidene)-2-(1,2,3,5,6,7-hexahydro-s-indacen-4-yl)acetamide] as the compound, how does the IC50 read?
Answer: Its IC50 is > 30000 nM.

Question: For `CC(C)c1cc(C(F)F)nc(C(C)C)c1CC(=O)N=S(N)(=O)c1sc(CN(C)C)cc1F` (single isomer, unassigned) [Example 305, (S) or (R)-N-(amino(5-((dimethylamino)methyl)-3-fluorothiophen-2-yl) (oxo)-λ^6-sulfaneylidene)-2-(6-(difluoromethyl)-2,4-diisopropylpyridin-3-yl)acetamide], which IC50 is on record?
Answer: The IC50 was > 30000 nM.

Same assay, conditions: Homo sapiens, THP-1, Table B1; 2% fetal bovine serum; class symbols; read-out: hTHP-1 IC50 (Average IC50 of compounds in hTHP-1 assay)

Question: For `CC(C)c1cc(-c2ccc3ccccc3c2)cc(C(C)C)c1CC(=O)N=[S@@](=O)(NC#N)c1cnc(C(C)(C)O)s1` [Example 346, (R)-N-(cyanamido(2-(2-hydroxypropan-2-yl)thiazol-5-yl)(oxo)-λ^6-sulfaneylidene)-2-(2,6-diisopropyl-4-(naphthalen-2-yl)phenyl)acetamide], which IC50 is on record?
Answer: Its IC50 is 200 to 1000 nM.

Question: With `CC(C)c1nc(-c2cccc(C(F)(F)F)c2)c(F)c(C(C)C)c1CC(=O)N=S(N)(=O)c1cnc(C(C)(C)O)s1` (stereo not shown) [Example 100, N-(amino(2-(2-hydroxypropan-2-yl)thiazol-5-yl)(oxo)-λ^6-sulfaneylidene)-2-(5-fluoro-2,4-diisopropyl-6-(3-(trifluoromethyl)phenyl)pyridin-3-yl)acetamide] as the compound, how does the IC50 read?
Answer: The IC50 was 200 to 1000 nM.

Question: Which IC50 does the source give for `CC(C)c1cc2c(c(C(C)C)c1CC(=O)N=S(N)(=O)c1ccn(C(F)F)n1)COC2` (single isomer, unassigned) [Example 319, (R) or (S)-N-(amino(1-(difluoromethyl)-1H-pyrazol-3-yl)(oxo)-λ^6-sulfaneylidene)-2-(4,6-diisopropyl-1,3-dihydroisobenzofuran-5-yl)acetamide] here?
Answer: Its IC50 is 5000 to 30000 nM.

Question: `CC(C)c1cnc(F)c(C(C)C)c1CC(=O)N=S(N)(=O)c1cnc(C(C)(C)O)s1` (stereo not shown) [Example 154, N-(amino(2-(2-hydroxypropan-2-yl)thiazol-5-yl)(oxo)-λ^6-sulfaneylidene)-2-(2-fluoro-3,5-diisopropylpyridin-4-yl)acetamide] was tested. Which IC50 did it give?
Answer: Its IC50 is 5000 to 30000 nM.

Question: Which IC50 does the source give for `CC(C)c1cc(C#N)c(F)c(C(C)C)c1CC(=O)N=S(N)(=O)c1cc(C(C)(C)O)n(-c2ccccc2)n1` (stereo not shown) [Example 239, N-(amino(5-(2-hydroxypropan-2-yl)-1-phenyl-1H-pyrazol-3-yl)(oxo)-λ^6-sulfaneylidene)-2-(4-cyano-3-fluoro-2,6-diisopropylphenyl)acetamide] here?
Answer: The IC50 was 1000 to 5000 nM.

Question: With `CC(C)c1ccc(C#N)c(C(C)C)c1CC(=O)N=S(N)(=O)c1nc(C(C)(C)O)cs1` (stereo not shown) [Example 120, N-(amino(4-(2-hydroxypropan-2-yl)thiazol-2-yl)(oxo)-λ^6-sulfaneylidene)-2-(3-cyano-2,6-diisopropylphenyl)acetamide] as the compound, how does the IC50 read?
Answer: The IC50 was 200 to 1000 nM.

Question: With `CC(C)(O)c1ncc(S(N)(=O)=NC(=O)Cc2c(C3CC3)cc(F)cc2C(F)(F)F)s1` (single isomer, unassigned) [Example 196, (R) or (S)-N-(amino (2-(2-hydroxypropan-2-yl)thiazol-5-yl)(oxo)-λ^6-sulfaneylidene)-2-(2-cyclopropyl-4-fluoro-6-(trifluoromethyl)phenyl) acetamide] as the compound, how does the IC50 read?
Answer: The IC50 was 5000 to 30000 nM.

Question: Which IC50 does the source give for `CCc1c2c(cc(C(C)C)c1CC(=O)N=S(N)(=O)c1cnc(C(C)(C)O)s1)COC2` (single isomer, unassigned) [Example 289, (R) or (S)-N-(amino(2-(2-hydroxypropan-2-yl)thiazol-5-yl)(oxo)-λ^6-sulfaneylidene)-2-(4-ethyl-6-isopropyl-1,3-dihydroisobenzofuran-5-yl)acetamide] here?
Answer: Its IC50 is 5000 to 30000 nM.

Question: `CC(C)c1cc(C#N)c(F)c(C(C)C)c1CC(=O)N=S(N)(=O)c1cnc(C(C)(O)CO)s1` (stereo not shown) [Example 238, N-(amino(2-(1,2-dihydroxypropan-2-yl)thiazol-5-yl)(oxo)-λ^6-sulfaneylidene)-2-(4-cyano-3-fluoro-2,6-diisopropylphenyl) acetamide] was tested. Which IC50 did it give?
Answer: The IC50 was 1000 to 5000 nM.

Question: How did the IC50 turn out when `CC(C)c1cc(-c2ccc3c(c2)CCOC3)cc(C(C)C)c1CC(=O)N=S(N)(=O)c1sc(C(C)(C)O)nc1CO` (stereo not shown) [Example 137, N-(amino(4-(hydroxymethyl)-2-(2-hydroxypropan-2-yl)thiazol-5-yl)(oxo)-λ^6-sulfaneylidene)-2-(4-(isochroman-6-yl)-2,6-diisopropylphenyl)acetamide] was run?
Answer: Its IC50 is 200 to 1000 nM.

Same assay, conditions: Homo sapiens, THP-1, Table B2; 2% fetal bovine serum; class symbols; read-out: hTHP-1 IC50 (Average IC50 of compounds in hTHP-1 assay)

Question: How did the IC50 turn out when `CC(C)c1cc(C#N)cc(C(C)C)c1CC(=O)N=S(=O)(NC#N)c1sc(C(C)(C)O)nc1CO` (single isomer, unassigned) [Example 358] was run?
Answer: The IC50 was 40 to 200 nM.

Question: How did the IC50 turn out when `CC(C)c1cc2c(c(C(C)C)c1CC(=O)N=[S@](=O)(NC#N)c1cnc(C(C)(C)O)s1)COC2=O` [Example 361, (S)-N-(cyanamido(2-(2-hydroxypropan-2-yl)thiazol-5-yl) (oxo)-λ^6-sulfaneylidene)-2-(4,6-diisopropyl-1-oxo-1,3-dihydroisobenzofuran-5-yl)acetamide] was run?
Answer: The IC50 was 1000 to 5000 nM.

Same assay, conditions: Table B1; 2% fetal bovine serum; class symbols; read-out: hTHP-1 IC50 (Average IC50 of compounds in hTHP-1 assay)

Question: `CC(C)c1cc(C(F)F)cc(C(C)C)c1CC(=O)N=S(N)(=O)c1ccc(CN(C)C)cc1F` (single isomer, unassigned) [Example 214, (R) or (S)-N-(amino(4-((dimethylamino)methyl)-2-fluorophenyl) (oxo)-λ^6-sulfaneylidene)-2-(4-(difluoromethyl)-2,6-diisopropylphenyl) acetamide] was tested. Which IC50 did it give?
Answer: Its IC50 is 40 to 200 nM.

Question: With `CC(C)c1cc2c(c(C(C)C)c1CC(=O)N=S(N)(=O)c1sc(C(C)(C)O)cc1F)COC2` (single isomer, unassigned) [Example 322, (S) or (R)-N-(amino (3-fluoro-5-(2-hydroxypropan-2-yl)thiophen-2-yl)(oxo)-λ^6-sulfaneylidene)-2-(4,6-diisopropyl-1,3-dihydroisobenzofuran-5-yl)acetamide] as the compound, how does the IC50 read?
Answer: The IC50 was 5000 to 30000 nM.

Question: With `CC(C)c1cc(OC(F)F)cc(C(C)C)c1CC(=O)N=S(N)(=O)c1sc(C(C)(C)O)cc1F` (single isomer, unassigned) [Example 76, (S)- or (R)-2-(4-(difluoromethoxy)-2,6-diisopropylphenyl)-N-(3-fluoro-5-(2-hydroxypropan-2-yl)thiophen-2-ylsulfonimidoyl)acetamide] as the compound, how does the IC50 read?
Answer: The IC50 was 40 to 200 nM.

Question: With `CCc1c2c(cc(C(C)C)c1CC(=O)N=S(N)(=O)c1sc(C(C)(C)O)cc1F)COC2` (single isomer, unassigned) [Example 300, (R) or (S)-N-(amino (3-fluoro-5-(2-hydroxypropan-2-yl)thiophen-2-yl)(oxo)-λ^6-sulfaneylidene)-2-(4-ethyl-6-isopropyl-1,3-dihydroisobenzofuran-5-yl)acetamide] as the compound, how does the IC50 read?
Answer: Its IC50 is 200 to 1000 nM.

Question: For `Cc1ccc(-c2cc(C(C)C)c(CC(=O)N=S(N)(=O)c3ncc(C(C)(C)O)s3)c(C(C)C)c2)cc1C` (single isomer, unassigned) [Example 167, (S) or (R)-N-(amino(5-(2-hydroxypropan-2-yl)thiazol-2-yl)(oxo)-λ^6-sulfaneylidene)-2-(3,5-diisopropyl-3′,4′-dimethyl-[1,1′-biphenyl]-4-yl)acetamide], which IC50 is on record?
Answer: The IC50 was 1000 to 5000 nM.

Question: With `CC(C)c1cc(-c2ccc(Cl)c(Cl)c2)cc(C(C)C)c1CC(=O)N=S(N)(=O)c1ncc(C(C)(C)O)s1` (single isomer, unassigned) [Example 170, (R) or (S)-N-(amino(5-(2-hydroxypropan-2-yl)thiazol-2-yl)(oxo)-λ^6-sulfaneylidene)-2-(3′,4′-dichloro-3,5-diisopropyl-[1,1′-biphenyl]-4-yl)acetamide] as the compound, how does the IC50 read?
Answer: The IC50 was 200 to 1000 nM.

Same assay, conditions: Table B2; 2% fetal bovine serum; class symbols; read-out: hTHP-1 IC50 (Average IC50 of compounds in hTHP-1 assay)

Question: Which IC50 does the source give for `CC(C)c1cc(C#N)c(F)c(C(C)C)c1CC(=O)N=S(N)(=O)c1sc(C(C)(C)O)nc1CO` (racemic) [Example 352, (S) and (R)—N-(amino(4-(hydroxymethyl)-2-(2-hydroxypropan-2-yl)thiazol-5-yl)(oxo)-λ^6-sulfaneylidene)-2-(4-cyano-3-fluoro-2,6-diisopropylphenyl)acetamide] here?
Answer: Its IC50 is 200 to 1000 nM.

Question: `CC(C)c1cc(F)cc(C(C)C)c1CC(=O)N=S(N)(=O)c1sc(C(C)(C)O)nc1CO` (racemic) [Example 356, (R) and (S)—N-(amino(4-(hydroxymethyl)-2-(2-hydroxypropan-2-yl)thiazol-5-yl)(oxo)-λ^6-sulfaneylidene)-2-(4-fluoro-2,6-diisopropylphenyl)acetamide] was tested. Which IC50 did it give?
Answer: The IC50 was 200 to 1000 nM.
